Our source for the MIC values is ChEMBL document CHEMBL1148404, “Novel heteroarotinoids as potential antagonists of Mycobacterium bovis BCG” (2004).

Common to all, as to type: functional
The subject of test [1] is Mycobacterium tuberculosis variant bovis. As to the kind of experiment: Antibacterial activity against Mycobacterium bovis (BCG); value ranges from 20-40.
The test system is the same in test [2]. The experiment in a line: Antibacterial activity against Mycobacterium bovis (BCG); value ranges from 2-4.
Test [3] shares this test system. As to the kind of experiment: Antibacterial activity against Mycobacterium bovis (BCG); value ranges from 5-10.
For test [4] the test system is unchanged. The experiment in a line: Antibacterial activity against Mycobacterium bovis (BCG); value ranges from 10-20.
The test system is the same in test [5]. The experiment in a line: Antibacterial activity against Mycobacterium bovis (BCG); value ranges from 0.5-1.

Consider `CCOC(=O)c1ccc(NC(=O)Nc2ccc3c(c2)C(C)(C)CC(C)(C)S3)cc1`, for which the MIC in test [1] was < 40 µg/mL. Still for that read-out and setting: next, `CCOC(=O)c1ccc(NC(=O)Nc2ccc3c(c2)C(C)(C)CC(C)(C)O3)cc1`: < 40 µg/mL; `CC1(C)CC(C)(C)c2cc(N/C(S)=N/c3ccc([N+](=O)[O-])cc3)ccc2O1`: < 40 µg/mL; `COc1ccc2c(c1/N=C(\S)Nc1ccc([N+](=O)[O-])cc1)C(C)(C)COC2(C)C`: < 40 µg/mL. Turning to `CC1=CC(C)(C)N(C)c2ccc(N/C(S)=N/c3ccc([N+](=O)[O-])cc3)cc21`, the MIC in test [1] is < 40 µg/mL. As for `CCOC(=O)c1ccc(N/C(S)=N/c2ccc3c(c2)C(C)=CC(C)(C)N3C)cc1`, the MIC in test [1] was < 40 µg/mL. As to `CCOC(=O)c1ccc(N/C(S)=N/c2ccc3c(c2)C(C)(C)CC(C)(C)S3)cc1`, the MIC in test [1] is < 40 µg/mL. Take `COc1ccc2c(c1NC(=S)NC(=O)c1ccc([N+](=O)[O-])cc1)C(C)(C)COC2(C)C`: the MIC in test [1] is < 40 µg/mL. Regarding `CCOC(=O)c1ccc(NC(=O)Nc2ccc3c(c2)C(C)=CC(C)(C)N3C)cc1`, the MIC in test [1] was < 40 µg/mL.

As for `CC1(C)CC(C)(C)c2cccc(/N=C(\S)Nc3ccc([N+](=O)[O-])cc3)c2O1`, the MIC in test [1] is < 40 µg/mL. `COC(=O)c1ccc(C(=O)Oc2ccc3c(c2)OC(C)(C)C=C3C)cc1`: the MIC in test [2] was < 4 µg/mL.

`CCOC(=O)c1ccc(NC(=O)Nc2cccc3c2OC(C)(C)CC3(C)C)cc1`: the MIC in test [1] is < 40 µg/mL.

Consider `CCOC(=O)c1ccc(N/C(S)=N/c2cccc3c2OC(C)(C)CC3(C)C)cc1`, for which, in test [1], the MIC is < 40 µg/mL. For the compound `CCOC(=O)c1ccc(N/C(S)=N/c2ccc3c(c2)C(C)(C)CC(C)(C)O3)cc1`, the minimum inhibitory concentration (MIC) in test [3] was < 10 µg/mL. For `CC1=CC(C)(C)N(C)c2ncc(/C=C/C(C)=C\C=N\N=C(/N)S)cc21`, the MIC in test [4] was < 20 µg/mL. Consider `CC(C)CCOc1ccc(NC(=S)Nc2ccc(OCCC(C)C)cc2)cc1` [TIOCARLIDE], for which the MIC in test [5] is < 1 µg/mL.
